The results in this text go back to ChEMBL document CHEMBL5260810, “Inhibition of bromodomain-containing protein 9 for the prevention of epigenetically-defined drug resistance” (Bioorg Med Chem Lett, 2017).

As usually defined, the pIC50 is the negative decadic logarithm of the IC50, by convention in mol/L. High values mean a low IC50, low ones a high IC50. The term pKd denotes the Kd on a negative log10 scale, so that one unit is a factor of ten. What is called inhibition is the change of the read-out against control, counted positive when it falls.

For one experiment, the system named is MCF7. The experiment is described as follows: Cytotoxicity against human MCF7 cells measured after 8 days. The conditions noted are these: MCF7, 192 h. Format: functional, cell-based.
For experiment [1], the target named is SWI/SNF-related matrix-associated actin-dependent regulator of chromatin subfamily A member 4 (Homo sapiens, UniProt P51532). The experiment is described as follows: Binding affinity to human partial length SMARCA4 (A1448 to S1575 residues) expressed in bacterial expression system by BROMOscan assay.
Chain of SWI/SNF-related matrix-associated actin-dependent regulator of chromatin subfamily A member 4 (P51532 whole entry, the tested form may be a part): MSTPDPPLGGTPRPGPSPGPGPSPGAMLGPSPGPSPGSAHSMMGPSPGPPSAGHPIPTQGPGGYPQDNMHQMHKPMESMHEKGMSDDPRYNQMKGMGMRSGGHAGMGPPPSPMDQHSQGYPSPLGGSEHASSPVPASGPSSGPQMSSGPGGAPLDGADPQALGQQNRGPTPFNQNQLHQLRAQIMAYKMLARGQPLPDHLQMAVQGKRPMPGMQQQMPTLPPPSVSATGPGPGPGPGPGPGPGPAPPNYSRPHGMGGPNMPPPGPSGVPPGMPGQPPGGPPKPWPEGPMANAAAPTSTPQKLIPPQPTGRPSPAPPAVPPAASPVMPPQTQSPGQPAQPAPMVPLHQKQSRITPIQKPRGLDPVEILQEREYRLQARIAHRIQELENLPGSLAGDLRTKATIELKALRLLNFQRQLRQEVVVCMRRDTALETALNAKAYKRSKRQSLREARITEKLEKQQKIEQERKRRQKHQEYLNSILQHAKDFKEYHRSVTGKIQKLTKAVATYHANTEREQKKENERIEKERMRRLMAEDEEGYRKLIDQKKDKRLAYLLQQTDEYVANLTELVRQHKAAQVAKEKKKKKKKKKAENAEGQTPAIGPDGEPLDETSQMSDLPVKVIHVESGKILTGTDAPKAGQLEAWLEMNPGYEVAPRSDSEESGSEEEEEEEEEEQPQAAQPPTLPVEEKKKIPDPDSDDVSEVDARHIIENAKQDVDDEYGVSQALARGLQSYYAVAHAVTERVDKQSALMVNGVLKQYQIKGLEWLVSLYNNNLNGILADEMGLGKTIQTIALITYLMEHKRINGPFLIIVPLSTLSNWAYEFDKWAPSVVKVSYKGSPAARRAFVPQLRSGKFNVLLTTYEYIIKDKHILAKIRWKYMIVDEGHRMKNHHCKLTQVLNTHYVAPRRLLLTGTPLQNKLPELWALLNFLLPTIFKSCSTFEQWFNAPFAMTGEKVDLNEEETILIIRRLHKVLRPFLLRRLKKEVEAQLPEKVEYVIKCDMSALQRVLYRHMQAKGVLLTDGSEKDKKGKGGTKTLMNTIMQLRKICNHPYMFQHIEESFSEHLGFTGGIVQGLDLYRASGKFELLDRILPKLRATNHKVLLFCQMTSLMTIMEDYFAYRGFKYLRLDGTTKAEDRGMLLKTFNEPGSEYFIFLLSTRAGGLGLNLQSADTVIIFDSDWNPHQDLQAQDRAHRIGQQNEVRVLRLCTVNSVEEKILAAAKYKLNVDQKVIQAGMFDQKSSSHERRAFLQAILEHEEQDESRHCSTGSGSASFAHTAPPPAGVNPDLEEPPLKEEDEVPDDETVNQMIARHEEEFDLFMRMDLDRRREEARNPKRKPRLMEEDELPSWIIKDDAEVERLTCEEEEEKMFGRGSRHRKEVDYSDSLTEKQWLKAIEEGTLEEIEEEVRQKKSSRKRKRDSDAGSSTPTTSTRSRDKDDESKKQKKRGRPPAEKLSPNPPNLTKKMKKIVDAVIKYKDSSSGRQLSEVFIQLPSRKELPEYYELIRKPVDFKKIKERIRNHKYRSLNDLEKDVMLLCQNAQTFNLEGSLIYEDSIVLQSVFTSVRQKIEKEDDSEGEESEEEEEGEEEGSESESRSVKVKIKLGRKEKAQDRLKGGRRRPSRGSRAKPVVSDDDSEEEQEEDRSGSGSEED
Experiment [2] in a line: Cytotoxicity against human HCC1171 cells measured after 8 days. The following applies: HCC1171, 192 h. Format: functional, cell-based.
Experiment [3] addresses Dual specificity mitogen-activated protein kinase kinase 1 (Homo sapiens) (UniProt Q02750). The experiment is described as follows: Inhibition of MEK1 (unknown origin) at 1 uM relative to control.
In another experiment the test system is CAL-120. The experiment can be described thus: Cytotoxicity against human CAL-120 cells measured after 8 days. The experiment is classed as functional, cell-based. The conditions noted are these: CAL-120, 192 h.
For experiment [4], the target named is T1, Muscle, skeletal receptor tyrosine-protein kinase (Homo sapiens) (UniProt O15146).
T1 sequence (whole entry): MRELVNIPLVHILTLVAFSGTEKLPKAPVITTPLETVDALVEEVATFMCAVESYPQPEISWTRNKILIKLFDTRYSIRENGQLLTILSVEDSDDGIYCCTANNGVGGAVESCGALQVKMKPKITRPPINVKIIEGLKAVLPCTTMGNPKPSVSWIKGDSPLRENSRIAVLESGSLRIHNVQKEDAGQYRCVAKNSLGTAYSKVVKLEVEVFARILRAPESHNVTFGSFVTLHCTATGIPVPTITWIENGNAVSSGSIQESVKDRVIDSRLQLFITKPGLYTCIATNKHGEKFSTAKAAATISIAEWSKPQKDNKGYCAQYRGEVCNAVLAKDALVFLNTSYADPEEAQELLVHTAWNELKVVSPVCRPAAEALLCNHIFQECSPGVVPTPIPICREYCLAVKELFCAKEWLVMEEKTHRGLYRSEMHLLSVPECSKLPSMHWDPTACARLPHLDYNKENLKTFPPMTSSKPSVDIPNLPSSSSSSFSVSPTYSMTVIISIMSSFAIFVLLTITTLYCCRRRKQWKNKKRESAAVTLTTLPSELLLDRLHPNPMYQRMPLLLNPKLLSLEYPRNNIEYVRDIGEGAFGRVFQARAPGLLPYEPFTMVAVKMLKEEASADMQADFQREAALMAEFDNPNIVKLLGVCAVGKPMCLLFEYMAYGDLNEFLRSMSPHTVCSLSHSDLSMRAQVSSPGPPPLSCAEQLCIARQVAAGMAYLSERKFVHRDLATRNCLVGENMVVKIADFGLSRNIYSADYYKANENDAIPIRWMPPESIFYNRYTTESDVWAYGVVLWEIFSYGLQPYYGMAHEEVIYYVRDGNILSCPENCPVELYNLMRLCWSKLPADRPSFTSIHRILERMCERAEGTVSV
The experiment can be described thus: Inhibition of MuSK (unknown origin) at 1 uM relative to control.

The nature of experiment [5]: Cytotoxicity against human HT115 cells measured after 8 days. The experiment is classed as functional, cell-based. The conditions noted are these: HT115, 192 h.
The species named for a further experiment is Homo sapiens. The experiment can be described thus: Inhibition of JAK1alpha1 (unknown origin) at 1 uM relative to control.
In experiment [6] the target is T2, Bromodomain and PHD finger-containing protein 3 (Homo sapiens, UniProt Q9ULD4).
T2 sequence (Q9ULD4 whole entry): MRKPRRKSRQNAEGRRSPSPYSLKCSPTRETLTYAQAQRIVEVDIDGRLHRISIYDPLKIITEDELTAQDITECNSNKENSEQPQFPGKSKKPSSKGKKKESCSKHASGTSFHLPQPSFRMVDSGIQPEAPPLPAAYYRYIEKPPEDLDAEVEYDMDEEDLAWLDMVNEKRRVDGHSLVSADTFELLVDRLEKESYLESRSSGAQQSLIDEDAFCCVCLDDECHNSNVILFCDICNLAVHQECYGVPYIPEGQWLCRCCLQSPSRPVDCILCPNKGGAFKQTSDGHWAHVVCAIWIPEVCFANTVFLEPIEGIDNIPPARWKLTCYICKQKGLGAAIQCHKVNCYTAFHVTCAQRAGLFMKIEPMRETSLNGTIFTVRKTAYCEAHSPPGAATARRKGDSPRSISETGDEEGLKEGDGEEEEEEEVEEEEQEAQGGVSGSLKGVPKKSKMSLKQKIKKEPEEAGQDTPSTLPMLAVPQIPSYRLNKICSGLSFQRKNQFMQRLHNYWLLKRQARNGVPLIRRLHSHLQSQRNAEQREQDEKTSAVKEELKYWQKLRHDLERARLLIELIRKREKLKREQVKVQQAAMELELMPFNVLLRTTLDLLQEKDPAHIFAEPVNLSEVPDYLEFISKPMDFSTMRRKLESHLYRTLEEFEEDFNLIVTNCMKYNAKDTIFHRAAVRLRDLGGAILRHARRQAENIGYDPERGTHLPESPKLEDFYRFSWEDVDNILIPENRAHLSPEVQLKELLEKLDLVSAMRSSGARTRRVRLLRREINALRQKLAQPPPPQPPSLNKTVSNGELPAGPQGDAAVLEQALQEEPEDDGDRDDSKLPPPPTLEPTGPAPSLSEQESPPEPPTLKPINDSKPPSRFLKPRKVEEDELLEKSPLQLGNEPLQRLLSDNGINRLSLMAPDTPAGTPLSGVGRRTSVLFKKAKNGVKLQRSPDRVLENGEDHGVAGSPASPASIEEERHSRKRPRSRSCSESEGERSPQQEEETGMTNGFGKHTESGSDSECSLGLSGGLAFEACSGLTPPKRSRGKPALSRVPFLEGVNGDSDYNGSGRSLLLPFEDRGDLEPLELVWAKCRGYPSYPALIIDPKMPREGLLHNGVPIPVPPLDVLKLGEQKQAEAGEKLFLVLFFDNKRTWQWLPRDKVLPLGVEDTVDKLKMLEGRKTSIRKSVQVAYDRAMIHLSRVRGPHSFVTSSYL
The experiment is described as follows: Binding affinity to human partial length BRPF3 (E588 to G701 residues) expressed in bacterial expression system by BROMOscan assay.

pIC50, pKd: −log10 of the molar value.

Chain of Dual specificity mitogen-activated protein kinase kinase 1 (Homo sapiens) (Q02750 whole entry): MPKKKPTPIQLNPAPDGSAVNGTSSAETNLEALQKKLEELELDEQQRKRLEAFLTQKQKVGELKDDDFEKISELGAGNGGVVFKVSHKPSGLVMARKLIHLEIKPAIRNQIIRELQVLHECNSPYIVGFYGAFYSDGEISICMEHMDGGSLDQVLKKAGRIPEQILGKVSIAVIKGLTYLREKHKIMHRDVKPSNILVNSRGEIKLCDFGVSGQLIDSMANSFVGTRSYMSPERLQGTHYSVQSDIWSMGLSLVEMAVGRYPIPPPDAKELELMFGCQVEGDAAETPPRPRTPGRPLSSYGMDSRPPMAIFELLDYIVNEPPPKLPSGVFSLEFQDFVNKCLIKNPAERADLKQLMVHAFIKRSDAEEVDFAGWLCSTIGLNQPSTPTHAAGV

Turning to `C/C=C/Cn1cc(-c2ccc(C(C)(C)O)cc2OC)c2cc[nH]c2c1=O`, the negative-log IC50 (pIC50) (in the experiment on MCF7; in experiment [2]; in the experiment on CAL-120; in [5]) was 4.70 in each case. In addition, the pKd in experiment [1] and in experiment [6] was less than 5.00 in each case. In addition, the figures for the inhibition (in experiment [3]; in experiment [4]; in the experiment listed under Homo sapiens) were 1%, 1.5% and -4%, respectively.
`C/C=C/Cn1cc(-c2ccc(C(=O)N3CCOCC3)cc2)c2cc[nH]c2c1=O`: the negative logarithm of the IC50 (pIC50) (with MCF7; in experiment [2]; with CAL-120; in experiment [5]) was 4.70 throughout. The pKd is 4.55 in [1] and less than 5.00 in [6]. In addition, the inhibition in experiment [3] was 3%; in [4], -2.4%; in the experiment listed under Homo sapiens, 25.3%.
As for `C/C=C/Cn1cc(-c2cc(OC)c(C(=O)N3CCOCC3)cc2OC)c2cc(C)[nH]c2c1=O`, the pIC50 was 5.87 in the experiment on MCF7, 5.70 in experiment [2], 5.70 with CAL-120 and 5.70 in [5]. Also, the pKd in experiment [1] and in experiment [6] was less than 5.00 each time. For the same compound, the inhibition in experiment [3] is 4%; in experiment [4], 3%; in the experiment filed under Homo sapiens it was -9.5%.
With `C/C=C/Cn1cc(-c2cc(OC)c(C(C)(C)O)cc2OC)c2cc(C)[nH]c2c1=O`, the negative-log Kd (pKd) in [1] and in experiment [6] was less than 5.00 throughout.
